Data published in patent US11298422B2, “Treating tumors with TTFields and an aurora kinase inhibitor” (Novocure Limited, priority 2018, dated 2022).
Read-outs that look alike come from different tables or passages of the source.

Columns and labels:
U87-MG [1] = test: Cytotoxicity assay (cell count at end of treatment), U87-MG; assay type: cell-based, human; settings: for cytotoxic effect, Observed TTFields + AZD1152 / cytotoxic effect, AZD1152: 72 h; for cytotoxic effect, Observed TTFields + AZD1152: percentage of control; for cytotoxic effect, Expected: expected value for the combination; for cytotoxic effect, AZD1152: number of cells as percentage of control
Description: (§1) The effects of the combined treatment of TTFields and the Aurora B kinase inhibitor AZD1152 was tested in 3 different glioma cell lines: U87-MG, U87-MG^shp53 and U-251. TTFields ([…], 200 kHz) were applied for 72 hours using the Inovitro system. AZD1152 was added to the media in concentrations of up to 100 nmol/L. Cell counts, cell cycle, and clonogenic potential were determined at the end of treatment. Formation of multinuclear cells was determined using microscopic images of cells stained with crystal violet.
(§2) The effects of the combined treatment of TTFields and AZD1152 was tested using the following human glioma cell lines: U87-MG (ATCC), U-251 (ECACC) and U87-mG^shp53 (provided by Dr. Achim Temme). All cells were grown in a humidified incubator supplied with 5% CO2. Cells were maintained in EMEM, supplemented with 10% FBS, 2 mmol/L glutamine, Pen-Strep solution (100 units/ml Penicillin and 0.1 mg/ml Streptomycin), 1 mmol/L sodium pyruvate and 1% NEAA. U87-MG^shp53 cells were maintained under selection with […] geneticin. AZD1152 was obtained from Sigma, Israel.
(§3) TTFields (1.6 V/cm RMS, 200 kHz) were applied for 72 hours using the Inovitro system. At the end of treatment, inhibition of tumor cell growth was analyzed quantitatively based on cell count. Clonogenic survival of U87-MG, U87-MG^shp53 and U-251 was tested by plating triplicates of 300 cells/dish in 6 wells dishes. After 2-3 weeks, cells were stained with crystal violet and the number of clones was quantified. Overall effect was calculated by multiplying the percentage of surviving cells at the end of treatment with the percentage of colonies formed vs. control.

U87-MG [2] = test: Overall effect (surviving cells x colonies formed vs. control), U87-MG; assay type: cell-based, human; settings: for overall effect, Observed TTFields + AZD1152 / overall effect, AZD1152: 72 h; for overall effect, Expected: expected value for the combination; for overall effect, AZD1152: surviving cells x colonies vs. control
Description: as §1, §2, §3

U-251 = test: Overall effect based on the clonogenic assay, U-251; assay type: cell-based, human; settings: for overall effect, Observed TTFields + AZD1152 / overall effect, AZD1152: 72 h; for overall effect, Observed TTFields + AZD1152: clonogenic assay; for overall effect, Expected: expected value for the combination; for overall effect, AZD1152: based on the clonogenic assay
Description: as §1, §2, §3
The overall effect for U-251 cells was determined based on the clonogenic assay. Response to TTFields application alone led to about 50% reduction in the clonogenic potential of U-251 cells (FIG. 1E).

U87-MG^shp53 = test: Flow cytometry analysis of DNA contents (ploidy), U87-MG^shp53; assay type: cell-based, human; settings: 72 h
Description: For cell cycle analysis, cells were removed with Trypsin immediately after 72 h treatment, washed twice with ice-cold PBS with 1% FBS and fixed with 70% ice-cold ethanol for 30 min. After fixation, cells were washed twice with ice-cold PBS with 1% FBS, pelleted and incubated in PBS containing 10 μg/ml RNase and 7.5 μg/ml7-AAD (Sigma-Aldrich) at 37° C. for 30 min. Cell cycle distribution was then quantified using the EC800 flow cytometer (Sony Biotechnology, Japan).
FIGS. 3A-D and 4A-E show U87-MG and U87-MG^shp53 FACS analysis of DNA contents following treatment with TTFields and AZD1152. More specifically, FIGS. 3A-D depict increased polyploidy in U87-MG cells following the combined treatment of TTFields (200 kHz, 1.6 V/cm RMS) at various AZD1152 concentrations; and FIGS. 4A-E depict increased polyploidy in U87-MG^shp53 cells following the combined treatment of TTFields (200 kHz, 1.6 V/cm RMS) at various AZD1152 concentrations.
Tables 1 and 2 depict, for U87-MG and U87-MG^shp53 respectively, numeric data corresponding to FIGS. 3 and 4. The columns in tables 1 and 2 represent the DNA copy number (e.g., 2n is the normal number of chromosomes (23 pairs=46), 4n is twice the number of chromosomes, etc.).

[3] = patients with advanced solid tumors, cited from earlier work
[4] = U87-MGShp53, AZD1152 12.5 nM + TTFIELDS 200 kHz 1.6 V/cm RMS
[5] = U87-MGShp53, AZD1152 12.5 nM, CONTROL (no TTFields)
[6] = U87-MGShp53, AZD1152 25 nM + TTFIELDS 200 kHz 1.6 V/cm RMS
[7] = U87-MGShp53, AZD1152 25 nM, CONTROL (no TTFields)
[8] = U87-MGShp53, AZD1152 50 nM + TTFIELDS 200 kHz 1.6 V/cm RMS
[9] = U87-MGShp53, AZD1152 50 nM, CONTROL (no TTFields)

For CCN(CCCOc1ccc2c(Nc3cc(CC(=O)Nc4cccc(F)c4)n[nH]3)ncnc2c1)CCOP(=O)(O)O [AZD1152, Barasertib], the “cytotoxic effect, Observed TTFields + AZD1152” value (U87-MG [1]; AZD1152 25 nM + TTFields 200 kHz 1.6 V/cm RMS) was 13.5%, the “cytotoxic effect, Expected” value (U87-MG [1]; AZD1152 25 nM + TTFields) was 23.5% and the “cytotoxic effect, AZD1152” value (U87-MG [1]; AZD1152 25 nM alone) was 46%. For the same molecule, the “cytotoxic effect, Observed TTFields + AZD1152” value (U87-MG [1]; AZD1152 50 nM + TTFields 200 kHz 1.6 V/cm RMS) was 8.5%, the “cytotoxic effect, Expected” value (U87-MG [1]; AZD1152 50 nM + TTFields) was 13.0% and the “cytotoxic effect, AZD1152” value (U87-MG [1]; AZD1152 50 nM alone) was 25.5%. For the same molecule, the “cytotoxic effect, Observed TTFields + AZD1152” value (U87-MG [1]; AZD1152 100 nM + TTFields 200 kHz 1.6 V/cm RMS) was 4.0%, the “cytotoxic effect, Expected” value (U87-MG [1]; AZD1152 100 nM + TTFields) was 4.8% and the “cytotoxic effect, AZD1152” value (U87-MG [1]; AZD1152 100 nM alone) was 9.5%. The “cytotoxic effect of combined treatment of TTFields and AZD1152” value (U87-MG [1]; TTFields 200 kHz 1.6 V/cm RMS 72 hours, 2-way ANOVA, p<0.001) was “significant enhancement of the cytotoxic effect”, the “overall effect, Observed TTFields + AZD1152” value (U87-MG [2]; AZD1152 25 nM + TTFIELDS 200 kHz 1.6 V/cm RMS) was 10.0% and the “overall effect, Expected” value (U87-MG [2]; AZD1152 25 nM + TTFields) was 15.0%. For the same molecule, the “overall effect, AZD1152” value (U87-MG [2]; AZD1152 25 nM alone) was 31%, the “overall effect, Observed TTFields + AZD1152” value (U87-MG [2]; AZD1152 50 nM + TTFIELDS 200 kHz 1.6 V/cm RMS) was 6.0% and the “overall effect, Expected” value (U87-MG [2]; AZD1152 50 nM + TTFields) was 8.0%. The “overall effect, AZD1152” value (U87-MG [2]; AZD1152 50 nM alone) was 16.5%, the “overall effect, Observed TTFields + AZD1152” value (U87-MG [2]; AZD1152 100 nM + TTFIELDS 200 kHz 1.6 V/cm RMS) was 4.0% and the “overall effect, Expected” value (U87-MG [2]; AZD1152 100 nM + TTFields) was 2.2%. For the same molecule, the “overall effect, AZD1152” value (U87-MG [2]; AZD1152 100 nM alone) was 4.5%, the “overall effect, Observed TTFields + AZD1152” value (U-251; U-251, AZD1152 6.25 nM + TTFields 200 kHz 1.6 V/cm RMS) was 8.0% and the “overall effect, Expected” value (U-251; U-251, AZD1152 6.25 nM + TTFields) was 40.7%. The “overall effect, AZD1152” value (U-251; U-251, AZD1152 6.25 nM alone) was 74%, the “overall effect, Observed TTFields + AZD1152” value (U-251; U-251, AZD1152 12.5 nM + TTFields 200 kHz 1.6 V/cm RMS) was 0.7% and the “overall effect, Expected” value (U-251; U-251, AZD1152 12.5 nM + TTFields) was 8.3%. For the same molecule, the “overall effect, AZD1152” value (U-251; U-251, AZD1152 12.5 nM alone) was 15%, the “overall effect, Observed TTFields + AZD1152” value (U-251; U-251, AZD1152 25 nM + TTFields 200 kHz 1.6 V/cm RMS) was 0.2% and the “overall effect, Expected” value (U-251; U-251, AZD1152 25 nM + TTFields) was 1.1%. For the same molecule, the “overall effect, AZD1152” value (U-251; U-251, AZD1152 25 nM alone) was 2%, the “overall effect, Observed TTFields + AZD1152” value (U-251; U-251, AZD1152 50 nM + TTFields 200 kHz 1.6 V/cm RMS) was 0.2% and the “overall effect, Expected” value (U-251; U-251, AZD1152 50 nM + TTFields) was 1.1%. For the same molecule, the “overall effect, AZD1152” value (U-251; U-251, AZD1152 50 nM alone) was 2%, the “overall effect, Observed TTFields + AZD1152” value (U-251; U-251, AZD1152 100 nM + TTFields 200 kHz 1.6 V/cm RMS) was 0.2% and the “overall effect, Expected” value (U-251; U-251, AZD1152 100 nM + TTFields) was 0.8%. For the same molecule, the “overall effect, AZD1152” value (U-251; U-251, AZD1152 100 nM alone) was 1.5%, the “DNA copy number 2n” value (U87-MG^shp53; [4]) was 44% and the “DNA copy number 4n” value (U87-MG^shp53; [4]) was 34%. The “DNA copy number 8n” value (U87-MG^shp53; [4]) was 19%, the “DNA copy number 2n” value (U87-MG^shp53; [5]) was 46% and the “DNA copy number 4n” value (U87-MG^shp53; [5]) was 29%. The “DNA copy number 8n” value (U87-MG^shp53; [5]) was 6%, the “DNA copy number 16n” value (U87-MG^shp53; [5]) was 1% and the “DNA copy number 32n” value (U87-MG^shp53; [5]) was 0%. For the same molecule, the “DNA copy number 2n” value (U87-MG^shp53; [6]) was 10%, the “DNA copy number 4n” value (U87-MG^shp53; [6]) was 36% and the “DNA copy number 8n” value (U87-MG^shp53; [6]) was 29%. The “DNA copy number 2n” value (U87-MG^shp53; [7]) was 48%, the “DNA copy number 4n” value (U87-MG^shp53; [7]) was 25% and the “DNA copy number 8n” value (U87-MG^shp53; [7]) was 6%. The “DNA copy number 16n” value (U87-MG^shp53; [7]) was 1%, the “DNA copy number 32n” value (U87-MG^shp53; [7]) was 0% and the “DNA copy number 2n” value (U87-MG^shp53; [8]) was 2%. For the same molecule, the “DNA copy number 4n” value (U87-MG^shp53; [8]) was 21%, the “DNA copy number 8n” value (U87-MG^shp53; [8]) was 38% and the “DNA copy number 2n” value (U87-MG^shp53; [9]) was 40%. The “DNA copy number 4n” value (U87-MG^shp53; [9]) was 33%, the “DNA copy number 8n” value (U87-MG^shp53; [9]) was 11% and the “DNA copy number 16n” value (U87-MG^shp53; [9]) was 3%. For the same molecule, the “DNA copy number 32n” value (U87-MG^shp53; [9]) was 0%, the “maximum tolerated AZD1152 dose” value ([3]; administered as two 2-h infusions (110 mg/day, days 1, 2, 15 and 16)) was 220 mg and the “maximum tolerated AZD1152 dose” value ([3]; as a 48-h continuous infusion) was 150 mg.
